Reference: US9144239B2, “Macrocyclic picolinamides as fungicides” (DOW AGROSCIENCES LLC, priority 2012, dated 2015)
Like-named read-outs stand apart in the source and are kept apart here.

Key:
Format in all cases: in vivo
[1] = tested on: Mycosphaerella graminicola; anamorph: Septoria tritici; assay: Fungicidal activity: leaf blotch of wheat (SEPTTR), wheat seedlings; conditions: Zymoseptoria tritici, 100 ppm, wheat
Summary of the method: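 Compounds in acetone were diluted with nine volumes of water containing 110 ppm Triton X-100 and sprayed to run-off on Yuma wheat seedlings at first-leaf stage. Septoria tritici spores were inoculated before or after treatment, followed by dew chambers at 100% RH and 20 °C, then greenhouse at 20 °C. Severity (0–100%) was scored once untreated plants were fully diseased; control was calculated relative to untreated plants.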

[2] = tested on: Blumeria graminis f.sp. hordei; synonym: Erysiphe graminis f.sp. hordei; assay: Fungicidal activity: barley powdery mildew (ERYSGH); conditions: 24 h, 1 Day Protectant, read-out: Disease Control ERYSGH 1DP
Experimental: Technical grades of materials were dissolved in acetone, which were then mixed with nine volumes of water containing 110 ppm Triton X-100. The fungicide solutions were applied onto wheat seedlings using an automated booth sprayer to run-off. All sprayed plants were allowed to air dry prior to further handling. Wheat plants (variety Yuma) were grown from seed in a greenhouse in 50% mineral soil/50% soil-less Metro mix until the first leaf was fully emerged, with 7-10 seedlings per pot. These plants were inoculated with an aqueous spore suspension of Septoria tritici either prior to or after fungicide treatments. After inoculation the plants were kept in 100% relative humidity (one day in a dark dew chamber followed by two to three days in a lighted dew chamber at 20° C.) to permit spores to germinate and infect the leaf. The plants were then transferred to a greenhouse set at 20° C. for disease to develop. When disease symptoms were fully expressed on the 1st leaves of untreated plants, infection levels were assessed on a scale of 0 to 100 percent disease severity. Percent disease control was calculated using the ratio of disease severity on treated plants relative to untreated plants. Evaluation of Fungicidal Activity: Barley Powdery Mildew (Blumeria graminis f.sp. hordei; Synonym: Erysiphe graminis f.sp. hordei; Bayer Code […]) Barley seedlings (variety Harrington) were propagated in soil-less Metro mix, with each pot having 8 to 12 plants, and used in the test when first leaf was fully emerged. Test plants were inoculated by dusting with infected stock plants 24 hr after fungicide treatments. After inoculation the plants were kept in a greenhouse set at 20° C. for disease to develop. Fungicide formulation, application and disease assessment on the sprayed leaves followed the procedures as described in the Example A.

[3] = tested on: Puccinia triticina; synonym: Puccinia recondita f. sp. tritici; assay: Fungicidal activity: wheat brown rust (PUCCRT), wheat seedlings; conditions: 100 ppm, wheat
Summary of the method: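 Wheat (Yuma) seedlings at first-leaf stage, inoculated with Puccinia triticina spores before or after treatment, held overnight in dark dew room at 22° C, 100% RH, then greenhouse at 24° C. Acetone solutions diluted with nine volumes water containing 110 ppm Triton X-100, sprayed to run-off. Percent disease control derived from severity (0–100%) relative to untreated plants.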

[4] = tested on: Cercospora beticola; assay: Fungicidal activity: leaf spot of sugar beets (CERCBE); conditions: 24 h, 1 Day Protectant, sugar beet, read-out: Disease Control CERCBE 1DP
Experimental: Technical grades of materials were dissolved in acetone, which were then mixed with nine volumes of water containing 110 ppm Triton X-100. The fungicide solutions were applied onto wheat seedlings using an automated booth sprayer to run-off. All sprayed plants were allowed to air dry prior to further handling. Wheat plants (variety Yuma) were grown from seed in a greenhouse in 50% mineral soil/50% soil-less Metro mix until the first leaf was fully emerged, with 7-10 seedlings per pot. These plants were inoculated with an aqueous spore suspension of Septoria tritici either prior to or after fungicide treatments. After inoculation the plants were kept in 100% relative humidity (one day in a dark dew chamber followed by two to three days in a lighted dew chamber at 20° C.) to permit spores to germinate and infect the leaf. The plants were then transferred to a greenhouse set at 20° C. for disease to develop. When disease symptoms were fully expressed on the 1st leaves of untreated plants, infection levels were assessed on a scale of 0 to 100 percent disease severity. Percent disease control was calculated using the ratio of disease severity on treated plants relative to untreated plants. Evaluation of Fungicidal Activity: Leaf Spot of Sugar Beets (Cercospora beticola; Bayer Code CERCBE) Sugar beet plants (variety HH88) were grown in soil-less Metro mix and trimmed regularly to maintain a uniform plant size prior to test. Plants were inoculated with a spore suspension 24 hr after fungicide treatments. Inoculated plants were kept in a dew chamber at 22° C. for 48 hr then incubated in a greenhouse set at 24° C. under a clear plastic hood with bottom ventilation until disease symptoms were fully expressed. Fungicide formulation, application and disease assessment on the sprayed leaves followed the procedures as described in the Example A.

[5] = tested on: Leptosphaeria nodorum; assay: Fungicidal activity: wheat glume blotch (LEPTNO); conditions: Parastagonospora nodorum, 24 h, 1 Day Protectant, read-out: Disease Control LEPTNO 1 DP
Experimental: Technical grades of materials were dissolved in acetone, which were then mixed with nine volumes of water containing 110 ppm Triton X-100. The fungicide solutions were applied onto wheat seedlings using an automated booth sprayer to run-off. All sprayed plants were allowed to air dry prior to further handling. Wheat plants (variety Yuma) were grown from seed in a greenhouse in 50% mineral soil/50% soil-less Metro mix until the first leaf was fully emerged, with 7-10 seedlings per pot. These plants were inoculated with an aqueous spore suspension of Septoria tritici either prior to or after fungicide treatments. After inoculation the plants were kept in 100% relative humidity (one day in a dark dew chamber followed by two to three days in a lighted dew chamber at 20° C.) to permit spores to germinate and infect the leaf. The plants were then transferred to a greenhouse set at 20° C. for disease to develop. When disease symptoms were fully expressed on the 1st leaves of untreated plants, infection levels were assessed on a scale of 0 to 100 percent disease severity. Percent disease control was calculated using the ratio of disease severity on treated plants relative to untreated plants. Evaluation of Fungicidal Activity: Wheat Glume Blotch (Leptosphaeria nodorum; Bayer Code […]) Wheat plants (variety Yuma) were grown from seed in a greenhouse in 50% mineral soil/50% soil-less Metro mix until the first leaf was fully emerged, with 7-10 seedlings per pot. These plants were inoculated with an aqueous spore suspension of Leptosphaeria nodorum 24 hr after fungicide treatments. After inoculation the plants were kept in 100% relative humidity (one day in a dark dew chamber followed by two days in a lighted dew chamber at 20° C.) to permit spores to germinate and infect the leaf. The plants were then transferred to a greenhouse set at 20° C. for disease to develop. Fungicide formulation, application and disease assessment followed the procedures as described in the Example A.

COc1ccnc(C(=O)N[C@H]2COC[C@H](Oc3ccc(F)cc3)[C@@H](OCC(C)C)[C@H](C)OC2=O)c1OCOC(C)=O [Compound 228]
pest or weed control at 100 ppm ([1]; 24 h, 1 Day Protectant, read-out: Disease Control SEPTTR 1DP): 80 to 100% | pest or weed control at 100 ppm ([1]; 72 h, 3 Day Curative, read-out: Disease Control SEPTTR 3DC): 80 to 100% | pest or weed control at 100 ppm [2]: 0 to 80% | pest or weed control at 100 ppm ([3]; 24 h, 1 Day Protectant, read-out: Disease Control PUCCRT 1DP): 80 to 100% | pest or weed control at 100 ppm ([3]; 72 h, 3 Day Curative, read-out: Disease Control PUCCRT 3DC): 80 to 100% | pest or weed control at 100 ppm [4]: 0 to 80% | pest or weed control at 100 ppm [5]: 80 to 100%
